Experimental data taken from patent publication US20080261994A1, “CYCLOPROPANE COMPOUNDS AND PHARMACEUTICAL USE THEREOF” (Japan Tobacco Inc., priority 2003, published 2008).
Read-outs that look alike come from different tables or passages of the source.

What was measured:
Format in all cases: biochemical
Recombinant Human MMP-13 = target: T1, Recombinant Human MMP-13 (Homo sapiens, UniProt P45452); assay: MMP-13 inhibitory activity (MMP-13 specific fluorescent substrate with quencher)
T1 construct: purchased R&D systems 511-MM
Summary of the method: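 Recombinant human MMP-13 with test compound, reaction started with quenched fluorogenic peptide 7-MCA-Pro-CHA-Gly-NVal-His-Ala-DPA in Tris-HCl buffer, 1 h at 25 °C, stopped with acetic acid. Fluorescence at Ex 325/Em 405 nm; % inhibition versus enzyme-free and inhibitor-free wells, reported as IC50 (μM).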

MMP-1 = target: T2, MMP-1 (Homo sapiens, UniProt P03956); assay: MMP-1 inhibitory action (Type I collagen Activity Measurement kit, FITC-labeled collagen type I)
T2 sequence (P03956 100-469): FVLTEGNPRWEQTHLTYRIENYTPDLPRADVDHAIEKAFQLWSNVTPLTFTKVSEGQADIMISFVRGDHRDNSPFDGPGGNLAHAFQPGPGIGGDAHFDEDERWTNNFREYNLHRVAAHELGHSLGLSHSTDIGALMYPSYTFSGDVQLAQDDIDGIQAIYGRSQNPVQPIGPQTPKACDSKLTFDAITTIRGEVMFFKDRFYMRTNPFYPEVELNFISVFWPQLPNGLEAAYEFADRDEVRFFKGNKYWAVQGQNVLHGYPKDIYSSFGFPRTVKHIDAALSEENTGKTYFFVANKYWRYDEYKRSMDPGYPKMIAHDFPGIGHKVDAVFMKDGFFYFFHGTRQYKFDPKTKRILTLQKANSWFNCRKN

aggrecanase-1 = target: T3, aggrecanase-1 (Homo sapiens, UniProt O75173); assay: Aggrecanase-1 inhibitory action (Particle Assay, GAG release from aggrecan-containing polyacrylamide particles)
T3 sequence (O75173 213-837): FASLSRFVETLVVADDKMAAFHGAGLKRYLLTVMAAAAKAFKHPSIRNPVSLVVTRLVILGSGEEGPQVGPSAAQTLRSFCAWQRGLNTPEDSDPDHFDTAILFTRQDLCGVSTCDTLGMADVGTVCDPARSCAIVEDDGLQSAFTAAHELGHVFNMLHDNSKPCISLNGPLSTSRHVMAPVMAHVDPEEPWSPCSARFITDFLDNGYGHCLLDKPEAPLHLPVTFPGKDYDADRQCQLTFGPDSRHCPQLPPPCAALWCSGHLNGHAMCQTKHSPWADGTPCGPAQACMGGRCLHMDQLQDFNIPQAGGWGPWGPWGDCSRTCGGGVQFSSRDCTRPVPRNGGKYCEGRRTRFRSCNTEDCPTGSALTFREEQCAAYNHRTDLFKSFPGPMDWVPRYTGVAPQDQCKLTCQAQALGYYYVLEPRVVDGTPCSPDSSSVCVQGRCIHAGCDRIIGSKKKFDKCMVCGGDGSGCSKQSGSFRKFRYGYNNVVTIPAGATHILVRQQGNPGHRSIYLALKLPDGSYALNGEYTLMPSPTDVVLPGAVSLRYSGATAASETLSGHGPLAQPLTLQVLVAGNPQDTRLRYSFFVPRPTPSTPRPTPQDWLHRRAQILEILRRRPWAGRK
Summary of the method: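 Enzyme and compound incubated with aggrecan-containing polyacrylamide particles in Tris-HCl buffer at 37° C for 15 h. Released GAG in supernatant measured with 1,9-dimethylmethylene blue at 595 nm against chondroitin sulfate standard; % inhibition from enzyme-free and inhibitor-free wells, reported as TC50 (μM).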

[1] = Recombinant Human MMP-13, fluorescent substrate, 25° C. for 1 h, read-out: IC50 MMP13 (Experimental Example 3)
[2] = MMP-1 inhibitory action, FITC-labeled collagen type I, 37° C. for 3 hr, read-out: IC50 MMP1 (Experimental Example 2)
[3] = aggrecanase-1 inhibitory action, read-out: IC50 AG1 (Experimental Example 1)
[4] = Experimental Example 3, read-out: IC50 MMP13
[5] = Experimental Example 2, read-out: IC50 MMP1
[6] = Experimental Example 1, read-out: IC50 AG1

| Structure (SMILES) | IC50 (Recombinant Human MMP-13; [1]) [nM] | IC50 (MMP-1; [2]) [nM] | IC50 (aggrecanase-1; [3]) [nM] | IC50 (Recombinant Human MMP-13; [4]) [nM] | IC50 (MMP-1; [5]) [nM] | IC50 (aggrecanase-1; [6]) [nM] |
| --- | --- | --- | --- | --- | --- | --- |
| O=C(CN1CCOCC1)Nc1cccc(C2CC2(NS(=O)(=O)c2ccc(-c3ccc(Cl)cc3)s2)C(=O)O)c1 (stereo not drawn) [Example 2-261] | < 1000 | ≥ 10000 | < 1000 |  |  |  |
| CC1[C@H](c2ccccc2)[C@]1(NS(=O)(=O)c1ccc(-c2ccc(Cl)cc2)s1)C(=O)O (stereo partly drawn) [Example 2-262] | < 100 | < 1000 | < 100 |  |  |  |
| O=C(O)C1(NS(=O)(=O)c2ccc(-c3ccc(Cl)cc3)s2)CC1(CCO)c1ccccc1 (stereo not drawn) [Example 2-263] | < 1000 | ≥ 1000 | < 100 |  |  |  |
| CC(=O)OCCCC1(c2ccccc2)CC1(NS(=O)(=O)c1ccc(-c2cc(C(F)(F)F)on2)s1)C(=O)O (stereo not drawn) [Example 2-264] | < 100 | ≥ 1000 | < 100 |  |  |  |
| NCc1ccc(C2CC2(NS(=O)(=O)c2ccc(-c3ccc(Cl)cc3)s2)C(=O)O)cc1 (stereo not drawn) [Example 2-265] | < 1000 | ≥ 10000 | < 1000 |  |  |  |
| CN(C)C(=O)c1ccc(C2CC2(NS(=O)(=O)c2ccc(-c3cc(C(F)(F)F)on3)s2)C(=O)O)cc1 (stereo not drawn) [Example 2-266] | < 1000 | ≥ 1000 | < 1000 |  |  |  |
| O=C(O)C1(NS(=O)(=O)c2ccc(-c3cc(C(F)(F)F)on3)s2)CC1c1cccc(NS(=O)(=O)N2CCOCC2)c1 (stereo not drawn) [Example 2-267] |  |  |  | < 100 | ≥ 1000 | < 100 |
| O=C(O)C1(NS(=O)(=O)c2ccc(-c3cc(C(F)(F)F)on3)s2)CC1c1cccc(CCO)c1 (stereo not drawn) [Example 2-268] |  |  |  | < 100 | ≥ 1000 | < 100 |
| O=C(O)C1(NS(=O)(=O)c2ccc(-c3ccc(Cl)cc3)s2)CC1c1cccc(NS(=O)(=O)N2CCOCC2)c1 (stereo not drawn) [Example 2-269] |  |  |  | < 100 | ≥ 1000 | < 100 |
| NC(=O)OCCc1cccc(C2CC2(NS(=O)(=O)c2ccc(-c3cc(C(F)(F)F)on3)s2)C(=O)O)c1 (stereo not drawn) [Example 2-270] |  |  |  | < 100 | ≥ 1000 | < 100 |
| COCCN(C)C(=O)c1ccc(C2(CCCOC(C)=O)CC2(NS(=O)(=O)c2ccc(-c3cc(C(F)(F)F)on3)s2)C(=O)O)cc1 (stereo not drawn) [Example 2-271] |  |  |  | < 1000 | ≥ 10000 | ≥ 1000 |
| CC(=O)NCCCC1(c2ccccc2)CC1(NS(=O)(=O)c1ccc(-c2ccc(Cl)cc2)s1)C(=O)O (stereo not drawn) [Example 2-272] |  |  |  | < 100 | ≥ 10000 | < 100 |
| O=C(O)C1(NS(=O)(=O)c2ccc(-c3ccc(Cl)cc3)s2)CC1(CCCn1cccn1)c1ccccc1 (stereo not drawn) [Example 2-273] |  |  |  | < 100 | < 1000 | < 100 |
| CC1(C)C(c2ccccc2)C1(NS(=O)(=O)c1ccc(-c2ccc(Cl)cc2)s1)C(=O)O (stereo not drawn) [Example 2-274] |  |  |  | ≥ 1000 | ≥ 10000 | < 100 |
| CC1(C)C(c2ccccc2)C1(NS(=O)(=O)c1ccc(-c2cc(C(F)(F)F)on2)s1)C(=O)O (stereo not drawn) [Example 2-275] |  |  |  | < 1000 | ≥ 1000 | < 100 |
| O=C1CCCN1c1cccc(C2CC2(NS(=O)(=O)c2ccc(-c3cc(C(F)(F)F)on3)s2)C(=O)O)c1 (stereo not drawn) [Example 2-276] |  |  |  | < 100 | ≥ 1000 | < 1000 |

| Structure (SMILES) | IC50 (Recombinant Human MMP-13; [1]) [nM] | IC50 (MMP-1; [2]) [nM] | IC50 (aggrecanase-1; [3]) [nM] | IC50 (Recombinant Human MMP-13; [4]) [nM] | IC50 (MMP-1; [5]) [nM] | IC50 (aggrecanase-1; [6]) [nM] |
| --- | --- | --- | --- | --- | --- | --- |
| O=C(O)C1(NS(=O)(=O)c2ccc(-c3cc(C(F)(F)F)on3)s2)C2Cc3ccccc3C21 (stereo not drawn) [Example 2-277] |  |  |  | < 1000 | ≥ 1000 | < 1000 |
| NC(=O)CCc1ccc([C@H]2C[C@@]2(NS(=O)(=O)c2ccc(-c3cc(C(F)(F)F)on3)s2)C(=O)O)cc1 [Example 2-278] |  |  |  | < 100 | < 1000 | < 100 |
| O=C(CCc1ccc([C@H]2C[C@@]2(NS(=O)(=O)c2ccc(-c3cc(C(F)(F)F)on3)s2)C(=O)O)cc1)N1CCOCC1 [Example 2-279] |  |  |  | < 100 | < 1000 | < 100 |
| CN1CCN(C(=O)CCc2ccc([C@H]3C[C@@]3(NS(=O)(=O)c3ccc(-c4cc(C(F)(F)F)on4)s3)C(=O)O)cc2)CC1 [Example 2-280] |  |  |  | < 100 | ≥ 10000 | < 1000 |
| CNC(=O)CCc1ccc([C@H]2C[C@@]2(NS(=O)(=O)c2ccc(-c3cc(C(F)(F)F)on3)s2)C(=O)O)cc1 [Example 2-281] |  |  |  | < 100 | < 1000 | < 100 |
| CN(C)C(=O)CCc1ccc([C@H]2C[C@@]2(NS(=O)(=O)c2ccc(-c3cc(C(F)(F)F)on3)s2)C(=O)O)cc1 [Example 2-282] |  |  |  | < 100 | < 1000 | < 100 |
| O=C(O)C1(NS(=O)(=O)c2ccc(-c3cc(C(F)(F)F)on3)s2)CC1c1cccc(CO)c1 (stereo not drawn) [Example 2-283] |  |  |  | < 100 | ≥ 1000 | < 1000 |
| CC(C)(C)OC(=O)NCCCC1(c2ccccc2)CC1(NS(=O)(=O)c1ccc(-c2ccc(Cl)cc2)s1)C(=O)O (stereo not drawn) [Example 2-284] |  |  |  | < 100 | ≥ 1000 | < 100 |
| NCCCC1(c2ccccc2)CC1(NS(=O)(=O)c1ccc(-c2ccc(Cl)cc2)s1)C(=O)O (stereo not drawn) [Example 2-285] |  |  |  | ≥ 1000 | ≥ 1000 | < 1000 |
| CC1[C@H](c2ccccc2)[C@]1(NS(=O)(=O)c1ccc2c(c1)Cc1cc(Br)ccc1-2)C(=O)O (stereo partly drawn) [Example 2-286] |  |  |  | < 100 | ≥ 1000 | < 100 |
| Cc1cnn(-c2ccc(S(=O)(=O)N[C@@]3(C(=O)O)C(C)[C@@H]3c3ccccc3)s2)c1 (stereo partly drawn) [Example 2-287] |  |  |  | < 100 | < 1000 | < 100 |
| CC1[C@@H](c2ccccc2)[C@@]1(NS(=O)(=O)c1ccc(-c2cc(C(F)(F)F)on2)s1)C(=O)O (stereo partly drawn) [Example 2-288] |  |  |  | < 100 | < 1000 | < 100 |
| NCc1ccc([C@@H]2C[C@]2(NS(=O)(=O)c2ccc(-c3cc(C(F)(F)F)on3)s2)C(=O)O)cc1 [Example 2-289] |  |  |  | < 1000 | ≥ 1000 | < 1000 |
| CN(C)C(=O)Cc1ccc([C@@H]2C[C@]2(NS(=O)(=O)c2ccc(-c3cc(C(F)(F)F)on3)s2)C(=O)O)cc1 [Example 2-290] |  |  |  | < 100 | < 1000 | < 100 |
| O=C(Cc1ccc([C@@H]2C[C@]2(NS(=O)(=O)c2ccc(-c3cc(C(F)(F)F)on3)s2)C(=O)O)cc1)N1CCOCC1 [Example 2-291] |  |  |  | < 100 | < 1000 | < 100 |
| NC(=O)Cc1ccc([C@@H]2C[C@]2(NS(=O)(=O)c2ccc(-c3cc(C(F)(F)F)on3)s2)C(=O)O)cc1 [Example 2-292] |  |  |  | < 100 | < 1000 | < 100 |
